Measurements as given in paper PMC11432330, “Novel Drug-like HsrA Inhibitors Exhibit Potent Narrow-Spectrum Antimicrobial Activities against Helicobacter pylori” (International Journal of Molecular Sciences, 2024).
≈ marks a conversion by molar mass, not a printed value.

Experiments:
[1] = tested on: H. pylori ATCC 43504 (MTZ-R); experiment: MIC/MBC, broth microdilution; assay type: cell-based, Helicobacter pylori; details: Helicobacter pylori, ATCC43504, H. pylori ATCC 43504 (MTZ-R)
Method: (§1) The antimicrobial activity of the HsrA inhibitors was evaluated by the determination of the minimal inhibitory concentration (MIC) against four different strains of H. pylori: ATCC 700392 (aka 26695), ATCC 43504 (MTZ-resistant reference strain), ATCC 700684 (CLR-resistant reference strain), and Donostia 2 (LVX-resistant clinical isolate). The MICs were determined by the broth microdilution method, as previously described. Briefly, H. pylori strains were grown in blood agar at 37 °C for 72 h under microaerobic conditions. Fresh inoculums adjusted at OD600 = 0.01 [~10^6 colony forming units (CFU) per mL] in BHI broth supplemented with 4% fetal bovine serum (BHI + FBS) were prepared and immediately exposed to final concentrations between 64 and 0.031 mg/L of each compound of interest. The compound solvent (DMSO) as well as conventional antibiotics (MTZ, CLR, LVX) were included as controls. […] Each experiment was performed twice in triplicate. The MIC and MBC values of the selected compounds against C. jejuni ATCC 33560 were determined by using the same method and culture conditions described for the H. pylori strains.

[2] = tested on: H. pylori ATCC 700392 (26695); experiment: MIC/MBC, broth microdilution; assay type: cell-based, Helicobacter pylori; details: Helicobacter pylori, ATCC700392, H. pylori ATCC 700392 (26695)
Method: as §1

[3] = tested on: H. pylori ATCC 700684 (CLR-R); experiment: MIC/MBC, broth microdilution; assay type: cell-based, Helicobacter pylori; details: Helicobacter pylori
Method: as §1

[4] = tested on: H. pylori Donostia 2 (LVX-R); experiment: MIC/MBC, broth microdilution; assay type: cell-based, Helicobacter pylori; details: Helicobacter pylori, H. pylori Donostia 2 (LVX-R)
Method: as §1

C. jejuni ATCC 33560 = experiment: MIC/MBC, broth microdilution; assay type: cell-based; details: Campylobacter jejuni, ATCC33560, C. jejuni ATCC 33560
Method: as §1

[5] = tested on: K. pneumoniae ATCC 700603; experiment: MIC/MBC according to EUCAST guidelines; assay type: cell-based, Klebsiella pneumonia; details: Klebsiella pneumoniae, ATCC700603
Method: The antimicrobial activities of the selected compounds against several Gram-negative and Gran-positive representative species of normal human microbiota were determined according to the EUCAST guidelines. Briefly, standardized inoculums (0.5 McFarland) were freshly prepared from overnight Mueller–Hinton agar plates of reference strains E. coli ATCC 25922, K. pneumonia ATCC 700603, E. faecalis ATCC 29212, S. aureus ATCC 29213, S. epidermidis ATCC 12228, and S. agalactiae ATCC 12386. Next, bacterial suspensions adjusted to 5 × 10^5 CFU/mL in Mueller–Hinton broth were exposed to a range of concentrations from 64 to 0.031 mg/L of the selected compounds. DMSO and conventional antibiotics LVX and AMP were included as controls. […] Experiments were performed twice in triplicate.

H. pylori ATCC 700392 = experiment: Checkerboard assay with first-line antibiotics; assay type: cell-based, Helicobacter pylori
Method: Potential synergisms between the selected HsrA inhibitors and first-line antibiotics were evaluated by using checkerboard assays, as previous described. Briefly, the antimicrobials to be tested were twofold serially diluted in BHI + FBS using independent sterile microtiter plates. Then, concentration gradients from two antimicrobials were aseptically mixed at equal volumes in a new microtiter plate, resulting in a matrix of 77 unique combinations of both compounds. Next, freshly prepared inoculum of H. pylori ATCC 700392 adjusted at 2 × 10^6 CFU/mL in BHI+ FBS were added to all wells, and plates were incubated for 72 h at 37 °C under microaerophilic conditions. […] The fractional inhibitory concentration index (FICI) for each antimicrobial combination was calculated as previously described. Values of FICI ≤ 0.5, 0.5 < FICI ≤ 1, 1 < FICI ≤ 4, and FICI > 4 were considered as indicative of synergistic, additive, neutral, or antagonist interactions, respectively.

[6] = Cytotoxicity, PrestoBlue cell viability assay; assay type: cell-based; details: human; HeLa cells, 24 h exposure; read-out: CC50 (50% cytotoxic concentration)
Method: (§2) The in vitro toxicity of the selected HsrA inhibitors was determined on HeLa cells by the PrestoBlue^TM assay, as previously described. Briefly, cells were cultured at 37 °C with 5% CO2 in Dulbecco’s modified Eagle’s medium containing 10% fetal bovine serum, 1% L-GlutaMAX^TM solution (Thermo Fisher Scientific), and 1% penicillin/streptomycin. When 80% confluence was achieved, cells were detached, counted, seeded in 96-well microplates at a density of 10,000 cells per well, and allowed to adhere for 24 h. Next, the mammalian cells were exposed to selected compounds at a range of 0.125 to 128 mg/L. After 24 h of exposure, the cell viability was measured with the PrestoBlue^TM cell viability reagent (Thermo Fisher Scientific), according to the manufacturer’s instructions. Experiments were performed twice in triplicate. The 50% cytotoxic concentration (CC50) of each compound was calculated by regression analysis using Microsoft Excel. Therapeutic index (TI) values were calculated as the ratio of the CC50 to the higher MIC observed for each compound [111].

HeLa cells = experiment: Cytotoxicity, PrestoBlue cell viability assay; assay type: cell-based
Method: as §2

[7] = in combination with CLR (clarithromycin)
[8] = in combination with LVX (levofloxacin)
[9] = in combination with MTZ (metronidazole)

`CSc1cccc(Nc2nc(C(C)(C)C)cs2)c1` [Ligand XI] showed an MBC ([1]; read-out: MBC) of 4 mg/L (≈ 14.4 µM), an MIC ([1]; read-out: MIC) of 2 mg/L (≈ 7.18 µM) and an MBC ([2]; read-out: MBC) of 4 mg/L (≈ 14.4 µM). The MIC ([2]; read-out: MIC) was 4 mg/L (≈ 14.4 µM), the MBC ([3]; ATCC700684, read-out: MBC) was 4 mg/L (≈ 14.4 µM) and the MIC ([3]; ATCC700684, read-out: MIC) was 2 mg/L (≈ 7.18 µM). For the same compound, the MBC ([4]; read-out: MBC) was 4 mg/L (≈ 14.4 µM), the MIC ([4]; read-out: MIC) was 2 mg/L (≈ 7.18 µM) and the MBC (C. jejuni ATCC 33560) was over 64 mg/L. For the same compound, the MIC (C. jejuni ATCC 33560) was over 64 mg/L, the MBC [5] was over 64 mg/L and the MIC [5] was over 64 mg/L. It also gave an FICI (H. pylori ATCC 700392; [7]) of 0.75, an FICantibiotic (H. pylori ATCC 700392; [7]) of 0.25 and an FICinhibitor (H. pylori ATCC 700392; [7]) of 0.5. The FICI (H. pylori ATCC 700392; [8]) was 2, the FICantibiotic (H. pylori ATCC 700392; [8]) was 1 and the FICinhibitor (H. pylori ATCC 700392; [8]) was 1. The Interaction (H. pylori ATCC 700392; [8]) was “Neutral (no interaction or neutral (FICI > 1 to ≤4))”, the FICI (H. pylori ATCC 700392; [9]) was 0.563 and the FICantibiotic (H. pylori ATCC 700392; [9]) was 0.5. The FICinhibitor (H. pylori ATCC 700392; [9]) was 0.063, the CC50 at 24 h [6] was 21.8 mg/L (≈ 78.3 µM) and the “TI (CC50/MIC), therapeutic index” value (HeLa cells; CC50 on HeLa / higher MIC observed against H. pylori) was 5.4. The “Cytotoxicity at 8 mg/L” value (HeLa cells; HeLa cells, 8 mg/L, 24 h) was “completely safe”.
